Measurements from patent US6809091B1, “Substances capable of inducing apoptosis” (Takara Bio Inc., priority 1998, dated 2004).
Read-outs that look alike come from different tables or passages of the source.

Experiments:
[1] = tested on: human promyelocytic leukemia HL-60; assay: MTT method: cell growth suppressing / apoptosis-inducing activity; assay type: cell-based; settings: for cancer cell growth suppressing activity and apoptic body formation: HL-60, MTT method of Example 4-(2), sample in 50% ethanol, 16 hours; for apoptosis-inducing activity / cancer cell growth suppressing activity: HL-60, MTT method of Example 1, 48 hours
Procedure: Heated and non-heated substances of each of them were sterilized by a membrane filter of 0.22 μm to prepare samples for the apoptosis-inducing activity. Those samples were diluted with aseptic distilled water to an extent of 2-, 4-, 8-, 16- and 32-fold, their activity for suppressing the cell growth to the human promyelocytic leukemia HL-60 was measured as follows and their intensity or the apoptosis-inducing activity was compared.
Thus, 10 μl of each of the diluted solutions or 10 μl of aseptic distilled water were placed in a well of a 96-well microtiter plate. Then 90 μl of an RPMI 1640 medium (manufactured by Nissui) containing 10% of fetal bovine serum (manufactured by Gibco) which contained 5000 HL-60 cells (ATCC CCL240) were added thereto and an incubation was carried out at 37° C. for 48 hours in the presence of 5% carbon dioxide gas. After observing the shape of the cells under an optical microscope, 10 μl of a phosphate-buffered aqueous saline solution containing 5 mg/ml of 3-(4,5-dimethylthiazol-2-yl)-2,5-diphenyltetrazolium bromide (MTT; manufactured by Sigma), an incubation was continued for four hours more and state of growth of cells and formation of formazan produced in the cells were observed under a microscope. Further, 100 μl of 2-propanol containing 0.04N HCl were added thereto followed by well stirring and the absorbance at 590 nm was measured and used as a degree of growth of cells (an MTT method).
The solvent of the fraction was appropriately evaporated to substitute with a 50% aqueous solution of ethanol and the activity for suppressing the growth of cancer cells was measured by an MTT method mentioned in Example 1 except that the sample was diluted to a two-fold series using a 50% aqueous solution of ethanol and 2 μl of each of the diluted solutions or 2 μl of a 50% aqueous solution of ethanol were placed in a well of a flat-bottom 96-well microplate. Time for incubation was 16 hours.

DSEK cells = assay: cell growth of DSEK cells (rheumatism model in vitro), Premix WST-1; assay type: cell-based, human; settings: for IC50: Homo sapiens; for inhibition of growth of rheumatism cells / antirheumatic activity: compared with the case where PBS was added
Procedure: (2) DSEK cells (owned by Department of Second Internal Medicine, Total Medical Center, Saitama Medical College, as a rhematism model in vitro) which were fibroblast cell strains established from synovial membrane from a patient suffering from human chronic rheumatism were incubated in an Iscov-MEM medium (IMDM; manufactured by Gibco BRL) containing 10% of FBS (manufactured by BioWhittaker) at 37° C. in the presence of 5% CO2 until the cells saturated in a incubator, a trypsin-EDTA solution (manufactured by BioWhittaker) was suspended in the above medium to an extent of 3×10^4 cells/ml and each 200 μl of the suspension was placed in each well of a 96-well microtiter plate (manufactured by Falcon). When the cells were almost in a state of 80% saturation after 5-7 days from incubation, the medium was exchanged and 200 μl of the above medium containing 50, 75, 100 or 150 μM of 4-hydroxy-2-cyclopenten-1-one or 4,5-dihydroxy-2-pentenal were added thereto.
A time course of 96 hours was adopted and, every 24 hours, 10 μl of Premix WST-1 (MK 400; manufactured by Takara Shuzo) were added followed by reacting at 37° C. for 3.5 hours and the value (A450-650) obtained by subtracting the absorbance at 650 nm (A650) from that at 450 nm (A450) was defined as a degree of cell growth.
(3) DSEK cells were prepared under the conditions as mentioned in Example 15-(2) and 20 μl of medium containing 25, 50, 75, 100, 200 or 400 μM of 4,5-dihydroxy-2-pentenal, 4-hydroxy-2-cyclopenten-1-one, 4-(9-guaninyl)-2-cyclopenten1-one or 2-(3,4-dihydroxy-1-butenyl)-4-(2-formylvinyl)-1,3-dioxolane were added thereto.
A time course of 72 hours was adopted and, every 24 hours, degree of cell growth was measured with a lapse of time. IC50 of each of the compounds was measured as well.

human IL-1α = assay: cytokine production in DSEK cells, ELISA; assay type: cell-based; settings: DSEK cell incubation, supernatant every 24 hours
Procedure: Now, in the DSEK cell incubation, 150 μl/well of the supernatant liquid of the medium were recovered every 24 hours and influence of 4-hydroxy-2-cyclopenten-1-one or 4,5-dihydroxy-2-pentenal on the production of cytokines (human TGF-β, human FGF-β, human IL-1α and human IL-10) was measured using an ELISA-kit specific to each of the cytokine (the kit manufactured by INTERGEN or human FGF-β and human IL-10; and the kit manufactured by Promega for human IL-1α and human TGF-β).

HL-60 cells = assay: observation of apoptosis under an optical microscope; assay type: cell-based, human; settings: HL-60, 24 hours
Procedure: (1) HL-60 cells (ATCC CCL-240) incubated at 37° C. in an RPMI 1640 medium (manufactured by BioWhittaker) containing 10% of fetal bovine serum (manufactured by JRH) treated at 56° C. for 30 minutes were suspended in an RPMI 1640 medium to make the concentration 2.5×10^5 cells/5 ml.
To 5 ml of this suspension were added 10 μl of 12.5 mM, 25 mM, 50 mM or 100 mM of a 70% ethanolic solution of 4,5-dihydroxy-2-pentenal prepared in Example 6-(1), 0.05 mM, 0.5 mM, 5 mM or 50 mM of a 70% ethanolic solution of 4-hydroxy-2-cyclopenten-1-[…] prepared in Example 6-(1), 5 mM, 10 mM or 20 mM of a 70% ethanolic solution of 4-(9-adeninyl)-2-cyclopenten-1-one prepared in Example 4-(4), 2.5 mM, 5 mM, 15 mM or 25 mM of a 70% ethanolic solution of 4-(9-guaninyl)-2-cyclopenten-1-one prepared in Example 4-(5), 75 mM, 150 mM or 300 mM of a 70% ethanolic solution of 1,5-epoxy-1-hydroxy-3-penten-2-one prepared in Example 5-(2) or 5 mM, 25 mM or 50 mM of a 70% ethanolic solution of 2-(trans-3,4-dihydroxy-1-butenyl)-4-(trans-2-formylvinyl)-1,3-dioxolane prepared in Example 6-(2) followed by incubating at 37° C. in the presence of 5% carbon dioxide gas for 24 hours.
Incidentally, such phenomena were not noted in the incubated cells to which […] of 70% ethanolic solution were added used as a control.

[2] = 24 hours, Example 15-(3), read-out: IC50
[3] = 48 hours, Example 15-(2), read-out: IC50, 50% cell growth inhibiting concentration
[4] = 72 hours, Example 15-(3), read-out: IC50
[5] = 96 hours, Example 15-(2), read-out: IC50, 50% cell growth inhibiting concentration

SMILES | cancer cell growth suppressing activity and apoptic body formation [1] | Degree of Cell Growth (DSEK cells; 50 μM, 24 hours) [A450-650] | Degree of Cell Growth (DSEK cells; 50 μM, 48 hours) [A450-650] | Degree of Cell Growth (DSEK cells; 50 μM, 72 hours) [A450-650] | Degree of Cell Growth (DSEK cells; 50 μM, 96 hours) [A450-650] | Degree of Cell Growth (DSEK cells; 75 μM, 24 hours) [A450-650] | Degree of Cell Growth (DSEK cells; 75 μM, 48 hours) [A450-650] | Degree of Cell Growth (DSEK cells; 75 μM, 72 hours) [A450-650] | Degree of Cell Growth (DSEK cells; 75 μM, 96 hours) [A450-650] | Degree of Cell Growth (DSEK cells; 100 μM, 24 hours) [A450-650] | Degree of Cell Growth (DSEK cells; 100 μM, 48 hours) [A450-650] | Degree of Cell Growth (DSEK cells; 100 μM, 72 hours) [A450-650] | Degree of Cell Growth (DSEK cells; 100 μM, 96 hours) [A450-650] | Degree of Cell Growth (DSEK cells; 150 μM, 24 hours) [A450-650] | Degree of Cell Growth (DSEK cells; 150 μM, 48 hours) [A450-650] | IC50 (DSEK cells; [2]) [µM] | IC50 (DSEK cells; [4]) [µM] | inhibition of growth of rheumatism cells / antirheumatic activity (DSEK cells) | production of human IL-1α (human IL-1α) | final concentration at which aggregation of nuclei, reduction in size of the cells and formation of apoptic body were confirmed (HL-60 cells) [µM] | other results
O=C1C=CC(O)C1 (stereo not shown) [4-hydroxy-2-cyclopenten-1-one] | strong activity | 0.57 | 0.71 | 0.73 | 0.54 | 0.51 | 0.68 | 0.68 | 0.55 | 0.50 | 0.64 | 0.67 | 0.51 | 0.46 | 0.55 | 207 | 60 | significant inhibition | inhibited |  | Degree of Cell Growth (DSEK cells; 150 μM, 72 hours): 0.63 A450-650; Degree of Cell Growth (DSEK cells; 150 μM, 96 hours): 0.50 A450-650; IC50 (DSEK cells; [3]): 60 µM; IC50 (DSEK cells; [5]): 35 µM
O=CC=CC(O)CO (single isomer, unassigned) [4,5-dihydroxy-2-pentenal, trans-4,5-dihydroxy-2-pentenal] | strong activity | 1.12 | 0.83 | 0.96 | 0.98 | 1.11 | 0.77 | 0.67 | 0.59 | 1.02 | 0.63 | 0.54 | 0.59 | 0.96 | 0.61 | 232 | 119 | significant inhibition | activated | ≥ 1 | apoptosis-inducing activity / cancer cell growth suppressing activity [1]: strong; apoptosis-inducing activity / cancer cell growth suppressing activity ([1]; listed as fraction 4): strong activity; Degree of Cell Growth (DSEK cells; 150 μM, 72 hours): 0.41 A450-650; Degree of Cell Growth (DSEK cells; 150 μM, 96 hours): 0.55 A450-650; IC50 (DSEK cells; [3]): 165 µM; IC50 (DSEK cells; [5]): 75 µM
O=C/C=C/C1COC(/C=C/C(O)CO)O1 (stereo not drawn) [2-(trans-3,4-dihydroxy-1-butenyl)-4-(trans-2-formylvinyl)-1,3-dioxolane] | noted |  |  |  |  |  |  |  |  |  |  |  |  |  |  | 267 | 68 | significant inhibition | activated | ≥ 80 | 
Nc1nc2c(ncn2C2C=CC(=O)C2)c(=O)[nH]1 (stereo not shown) [4-(9-guaninyl)-2-cyclopenten-1-one] |  |  |  |  |  |  |  |  |  |  |  |  |  |  |  | 132 | 67 | significant inhibition | activated | ≥ 39 | concentration of dried product showing deformation and apoptic body formation in the cells ([1]; HL-60, MTT assay): about 13 μg/ml
